According to US20220290140A1, “TRANS-CYCLOOCTENE LABELED ANTISENSE OLIGONUCLEOTIDES, RADIO LABELED TETRAZINE AND METHODS” (Biogen MA Inc., priority 2019, published 2022):

Experiments:
Type in all cases: in vitro ADME
[1] = Plasma protein binding (PPB); conditions: rat, read-out: plasma protein binding, unbound
Excerpt: (§1) As pretargeting is a 2-component system, an ^18F-Tz was developed to be CNS-penetrant based on cnsPET-MPO modeling (Zhang, L., et al. (2018). J Med Chem 61(8): 3296-3308).

[2] = Brain protein binding (BPB); conditions: rat, brain tissue (brain protein binding)
Excerpt: as §1

P-gp = biological target: T1, P-gp (Homo sapiens, UniProt P08183); experiment: MDCK-P-gp cell model of permeability (efflux ratio); conditions: dog, MDCK-MDR1
T1 construct: expressed in transfected cells; host or cells: MDCK (canine kidney) cells expressing P-gp
T1 sequence (P08183 whole entry): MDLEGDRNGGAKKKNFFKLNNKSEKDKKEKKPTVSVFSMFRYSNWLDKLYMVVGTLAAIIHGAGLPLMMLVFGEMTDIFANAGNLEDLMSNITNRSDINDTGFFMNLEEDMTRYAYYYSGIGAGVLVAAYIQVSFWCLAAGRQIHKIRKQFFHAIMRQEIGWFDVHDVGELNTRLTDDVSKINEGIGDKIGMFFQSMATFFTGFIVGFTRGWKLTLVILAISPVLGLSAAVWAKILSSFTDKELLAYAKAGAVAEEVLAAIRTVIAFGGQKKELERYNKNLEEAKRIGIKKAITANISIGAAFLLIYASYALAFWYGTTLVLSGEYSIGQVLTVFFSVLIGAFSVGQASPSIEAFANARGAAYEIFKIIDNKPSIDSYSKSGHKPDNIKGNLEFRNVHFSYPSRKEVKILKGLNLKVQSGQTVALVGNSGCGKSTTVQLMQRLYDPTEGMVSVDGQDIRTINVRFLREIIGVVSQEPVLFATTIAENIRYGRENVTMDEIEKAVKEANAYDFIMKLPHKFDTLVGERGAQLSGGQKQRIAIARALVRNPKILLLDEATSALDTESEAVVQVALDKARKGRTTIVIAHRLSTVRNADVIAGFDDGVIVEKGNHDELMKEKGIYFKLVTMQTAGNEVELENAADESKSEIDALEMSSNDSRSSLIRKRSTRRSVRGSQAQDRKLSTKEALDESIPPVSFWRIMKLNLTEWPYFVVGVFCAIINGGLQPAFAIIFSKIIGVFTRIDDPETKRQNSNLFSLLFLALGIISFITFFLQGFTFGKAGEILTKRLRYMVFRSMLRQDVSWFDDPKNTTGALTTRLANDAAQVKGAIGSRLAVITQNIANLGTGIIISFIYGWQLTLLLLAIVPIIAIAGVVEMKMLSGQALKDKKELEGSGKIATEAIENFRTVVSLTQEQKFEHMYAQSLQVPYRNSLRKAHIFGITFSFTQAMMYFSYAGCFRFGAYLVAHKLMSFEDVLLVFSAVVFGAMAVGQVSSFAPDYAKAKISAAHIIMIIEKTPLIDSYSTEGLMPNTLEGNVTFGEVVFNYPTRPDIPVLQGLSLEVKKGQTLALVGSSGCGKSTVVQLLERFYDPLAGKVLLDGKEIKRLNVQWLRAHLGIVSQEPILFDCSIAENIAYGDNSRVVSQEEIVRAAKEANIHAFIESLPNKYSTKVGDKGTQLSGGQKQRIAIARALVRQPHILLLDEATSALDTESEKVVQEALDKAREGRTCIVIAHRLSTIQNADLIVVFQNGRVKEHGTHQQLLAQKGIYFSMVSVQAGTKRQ
Excerpt: as §1

BCRP = biological target: T2, BCRP (Homo sapiens, UniProt Q9UNQ0); experiment: in vitro; conditions: dog
T2 construct: expressed in transfected cells; host or cells: MDCK (canine kidney) cells expressing BCRP
T2 sequence (Q9UNQ0 1-655): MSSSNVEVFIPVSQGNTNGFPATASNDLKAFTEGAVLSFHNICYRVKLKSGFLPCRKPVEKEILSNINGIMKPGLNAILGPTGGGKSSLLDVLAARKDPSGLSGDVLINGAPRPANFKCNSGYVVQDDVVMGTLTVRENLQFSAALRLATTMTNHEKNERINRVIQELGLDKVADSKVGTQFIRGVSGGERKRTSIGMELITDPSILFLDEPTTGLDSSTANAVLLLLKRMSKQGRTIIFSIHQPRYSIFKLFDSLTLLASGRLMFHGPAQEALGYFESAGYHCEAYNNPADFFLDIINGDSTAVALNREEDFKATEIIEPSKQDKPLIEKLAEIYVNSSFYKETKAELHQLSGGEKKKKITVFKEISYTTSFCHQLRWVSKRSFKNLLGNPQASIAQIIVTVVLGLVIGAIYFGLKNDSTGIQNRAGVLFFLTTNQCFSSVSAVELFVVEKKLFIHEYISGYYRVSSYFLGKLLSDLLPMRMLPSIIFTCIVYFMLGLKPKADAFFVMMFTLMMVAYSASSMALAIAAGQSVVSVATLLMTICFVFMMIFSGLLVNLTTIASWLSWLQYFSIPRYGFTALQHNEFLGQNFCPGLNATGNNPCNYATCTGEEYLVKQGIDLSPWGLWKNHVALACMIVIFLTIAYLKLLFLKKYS
Excerpt: as §1

fraction unbound [1]: 0.69
fraction unbound [2]: 0.51
efflux ratio (P-gp): 1.71
efflux ratio (BCRP): 0.51
SMILES: O=C(Cc1ccc(-c2nncnn2)cc1)NCCF [Compound 1′, 2-(4-(1,2,4,5-tetrazin-3-yl)phenyl)-N-(2-fluoroethyl)acetamide]
